Measured values reported in the NIST ThermoML archive (doi:10.1016/j.jct.2017.06.001).

Assay: xn = mol fraction of the nth substance listed
Conditions: 100 kPa, Liquid; for speed of sound: Frequency=5 MHz, Pulse-echo method; for mass density: Vibrating tube method

OCCCCCO [1,5-pentanediol] + O
Conditions | mass density [kg/m3] | speed of sound [m/s]
288.15 K, x1 = 0.005 | 998.88 | –
288.15 K, x1 = 0.0101 | 999.03 | –
288.15 K, x1 = 0.0196 | 999.79 | –
288.15 K, x1 = 0.0251 | 1000.47 | –
288.15 K, x1 = 0.0304 | 1001.25 | –
288.15 K, x1 = 0.05 | 1003.56 | –
288.15 K, x1 = 0.0769 | 1005.76 | –
288.15 K, x1 = 0.1002 | 1007.25 | –
288.15 K, x1 = 0.1438 | 1008.43 | –
288.15 K, x1 = 0.1845 | 1008.63 | –
288.15 K, x1 = 0.206 | – | 1706.1
288.15 K, x1 = 0.2108 | – | 1706.3
288.15 K, x1 = 0.2162 | – | 1706.4
288.15 K, x1 = 0.2177 | – | 1706.4
288.15 K, x1 = 0.2203 | – | 1706.5
288.15 K, x1 = 0.2319 | – | 1706.5
288.15 K, x1 = 0.2402 | – | 1706.4
288.15 K, x1 = 0.25 | – | 1706.2
288.15 K, x1 = 0.2503 | 1007.9 | –
288.15 K, x1 = 0.2599 | – | 1706
288.15 K, x1 = 0.2695 | – | 1705.6
288.15 K, x1 = 0.283 | – | 1705
288.15 K, x1 = 0.3 | 1006.94 | –
288.15 K, x1 = 0.3004 | – | 1704.1
288.15 K, x1 = 0.3171 | – | 1703
288.15 K, x1 = 0.3343 | 1006.2 | –
288.15 K, x1 = 0.3398 | – | 1701.4
288.15 K, x1 = 0.3601 | – | 1699.8
288.15 K, x1 = 0.3882 | – | 1697.2
288.15 K, x1 = 0.4171 | 1004.47 | –
288.15 K, x1 = 0.4185 | – | 1694.2
288.15 K, x1 = 0.4484 | – | 1690.8
288.15 K, x1 = 0.454 | 1003.59 | –
288.15 K, x1 = 0.4755 | – | 1687.5
288.15 K, x1 = 0.4893 | – | 1685.8
288.15 K, x1 = 0.5003 | 1002.5 | –
288.15 K, x1 = 0.508 | – | 1683.4
288.15 K, x1 = 0.5305 | – | 1680.3
288.15 K, x1 = 0.5362 | 1001.6 | –
288.15 K, x1 = 0.5516 | – | 1677.4
288.15 K, x1 = 0.5741 | – | 1674.2
288.15 K, x1 = 0.5932 | – | 1671.5
288.15 K, x1 = 0.6177 | 999.9 | –
288.15 K, x1 = 0.6187 | – | 1667.9
288.15 K, x1 = 0.6383 | – | 1665
288.15 K, x1 = 0.6478 | 999.3 | –
288.15 K, x1 = 0.6592 | – | 1662.1
288.15 K, x1 = 0.6819 | – | 1658.9
288.15 K, x1 = 0.7025 | 998.2 | –
288.15 K, x1 = 0.7043 | – | 1655.7
288.15 K, x1 = 0.7236 | – | 1653.1
288.15 K, x1 = 0.7443 | – | 1650.3
288.15 K, x1 = 0.7504 | 997.4 | –
288.15 K, x1 = 0.7647 | – | 1647.6
288.15 K, x1 = 0.7836 | – | 1645.2
288.15 K, x1 = 0.7927 | 996.5 | –
288.15 K, x1 = 0.8018 | – | 1642.8
288.15 K, x1 = 0.8231 | – | 1640.1
288.15 K, x1 = 0.8417 | – | 1637.8
288.15 K, x1 = 0.8605 | 995.2 | –
288.15 K, x1 = 0.8609 | – | 1635.4
288.15 K, x1 = 0.8783 | – | 1633.2
288.15 K, x1 = 0.8967 | – | 1630.9
288.15 K, x1 = 0.9004 | 994.4 | –
288.15 K, x1 = 0.9133 | – | 1628.7
288.15 K, x1 = 0.9388 | – | 1625.3
288.15 K, x1 = 0.9496 | 993.3 | –
288.15 K, x1 = 0.9515 | – | 1623.6
288.15 K, x1 = 0.9651 | – | 1621.7
288.15 K, x1 = 0.9837 | – | 1618.9
288.15 K, x1 = 1 | 992.2 | 1616.4
293.15 K, x1 = 0.0002 | – | 1483
293.15 K, x1 = 0.0004 | – | 1483.8
293.15 K, x1 = 0.0005 | – | 1484.4
293.15 K, x1 = 0.0008 | – | 1485.6
293.15 K, x1 = 0.0012 | – | 1487
293.15 K, x1 = 0.0017 | – | 1489
293.15 K, x1 = 0.0021 | – | 1490.8
293.15 K, x1 = 0.0029 | – | 1493.7
293.15 K, x1 = 0.0037 | – | 1496.8
293.15 K, x1 = 0.0043 | – | 1499.2
293.15 K, x1 = 0.005 | – | 1501.8
293.15 K, x1 = 0.0057 | – | 1504.5
293.15 K, x1 = 0.0064 | – | 1506.9
293.15 K, x1 = 0.0071 | – | 1509.3
293.15 K, x1 = 0.0078 | – | 1511.9
293.15 K, x1 = 0.0085 | – | 1514.3
293.15 K, x1 = 0.0091 | – | 1516.7
293.15 K, x1 = 0.0098 | – | 1519
293.15 K, x1 = 0.0107 | – | 1522
293.15 K, x1 = 0.0113 | – | 1524.2
293.15 K, x1 = 0.012 | – | 1526.6
293.15 K, x1 = 0.0128 | – | 1529.1
293.15 K, x1 = 0.0136 | – | 1531.6
293.15 K, x1 = 0.0143 | – | 1534
293.15 K, x1 = 0.015 | – | 1536.2
293.15 K, x1 = 0.0158 | – | 1538.5
293.15 K, x1 = 0.0165 | – | 1540.7
293.15 K, x1 = 0.0172 | – | 1543
293.15 K, x1 = 0.018 | – | 1545.3
293.15 K, x1 = 0.0189 | – | 1547.8
293.15 K, x1 = 0.0198 | – | 1550.5
293.15 K, x1 = 0.0206 | – | 1552.8
293.15 K, x1 = 0.0214 | – | 1555.3
293.15 K, x1 = 0.0224 | – | 1557.8
293.15 K, x1 = 0.0232 | – | 1560.2
293.15 K, x1 = 0.0241 | – | 1562.7
293.15 K, x1 = 0.0254 | – | 1566
293.15 K, x1 = 0.0263 | – | 1568.5
293.15 K, x1 = 0.0276 | – | 1571.6
293.15 K, x1 = 0.0285 | – | 1573.9
293.15 K, x1 = 0.0294 | – | 1576.1
293.15 K, x1 = 0.0302 | – | 1578.2
293.15 K, x1 = 0.0314 | – | 1580.8
293.15 K, x1 = 0.0323 | – | 1583.1
293.15 K, x1 = 0.0333 | – | 1585.3
293.15 K, x1 = 0.0343 | – | 1587.6
293.15 K, x1 = 0.0355 | – | 1590.1
293.15 K, x1 = 0.0368 | – | 1592.9
293.15 K, x1 = 0.0383 | – | 1596.3
293.15 K, x1 = 0.0398 | – | 1599.2
293.15 K, x1 = 0.0408 | – | 1601.4
293.15 K, x1 = 0.0418 | – | 1603.3
293.15 K, x1 = 0.0435 | – | 1606.5
293.15 K, x1 = 0.0451 | – | 1609.5
293.15 K, x1 = 0.0472 | – | 1613.3
293.15 K, x1 = 0.0491 | – | 1616.6
293.15 K, x1 = 0.0506 | – | 1619.2
293.15 K, x1 = 0.0528 | – | 1622.7
293.15 K, x1 = 0.0552 | – | 1626.4
293.15 K, x1 = 0.0569 | – | 1629
293.15 K, x1 = 0.0599 | – | 1633.3
293.15 K, x1 = 0.0612 | – | 1635.1
293.15 K, x1 = 0.0629 | – | 1637.4
293.15 K, x1 = 0.0645 | – | 1639.4
293.15 K, x1 = 0.0665 | – | 1641.9
293.15 K, x1 = 0.0684 | – | 1644.3
293.15 K, x1 = 0.0711 | – | 1647.4
293.15 K, x1 = 0.0738 | – | 1650.3
293.15 K, x1 = 0.077 | – | 1653.6
293.15 K, x1 = 0.08 | – | 1656.5
293.15 K, x1 = 0.0837 | – | 1659.9
293.15 K, x1 = 0.0871 | – | 1662.8
293.15 K, x1 = 0.0895 | – | 1664.7
293.15 K, x1 = 0.0944 | – | 1668.3
293.15 K, x1 = 0.0974 | – | 1670.4
293.15 K, x1 = 0.1023 | – | 1673.5
293.15 K, x1 = 0.1068 | – | 1676.1
293.15 K, x1 = 0.1108 | – | 1678.1
293.15 K, x1 = 0.1168 | – | 1680.9
293.15 K, x1 = 0.121 | – | 1682.7
293.15 K, x1 = 0.1249 | – | 1684.1
293.15 K, x1 = 0.1295 | – | 1685.7
293.15 K, x1 = 0.1356 | – | 1687.5
293.15 K, x1 = 0.1401 | – | 1688.7
293.15 K, x1 = 0.1445 | – | 1689.8
293.15 K, x1 = 0.1521 | – | 1691.3
